Assay results taken from patent US11254640B2, “N-substituted indoles and other heterocycles for treating brain disorders” (The Regents of the University of California, priority 2019, dated 2022).
Where two headings read alike, the source gives them in different places.

Tests used:
Assay type in all cases: cell-based
[1] = system: 5HT2A sensor; assay: 5HT2A sensor assay, agonist mode (sLight1.3s HEK293T stable line); details: percent relative to 5-HT at 100 uM; for 5HT2A Agonist mean @ 100 nM (%): 100 nM compound; for 5HT2A Agonist mean @ 10 μM (%): 10 μM compound; for 5HT2A Agonist mean @ 100 μM (%): 100 μM compound
Outline: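 Fluorescence change, dFF=(Fsat−Fapo)/Fapo, was taken from membrane images (460 nm excitation) before and after compound addition and scaled as % activation, with the DMSO mean as 0 and the 5HT mean as 100. The cells were sLight1.3s HEK293T in HBSS. Final compound levels were 100 μM, 10 μM and 100 nM in 0.1% DMSO, in triplicate.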

[2] = system: 5HT2A sensor; assay: 5HT2A sensor assay, antagonist mode (sLight1.3s HEK293T stable line); details: relative to 5-HT at 100 nM; for 5HT2A Antagonist mean @ 100 nM (%): 100 nM compound; for 5HT2A Antagonist mean @ 10 μM (%): 10 μM compound; for 5HT2A Antagonist mean @ 100 μM (%): 100 μM compound
Outline: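 Inactivation score is computed from membrane dFF as (dFF(compound+5HT)−dFF(5HT))/dFF(5HT), with HBSS-only fluorescence as Fapo. Final concentrations: 5-HT 100 nM added first, then compound at 100 nM, 10 μM or 100 μM in 0.1% DMSO. Triplicates; FITC imaging, 5 fields per well.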

[3] = system: rat cortical neurons; assay: Neurite outgrowth assay; details: Cortical neurone, 1 hour treatment at DIV 4, analysed DIV 7, fold vs DMSO control
Outline: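 Embryonic day 18 rat cortical neurons, 20,000 cells/well in Neurobasal/B27, were exposed at DIV 4 to 10 μM compound for 1 hour, then washed out. At DIV 7, β-III-tubulin immunostaining and automated imaging gave neurite length, branch points, root and extremity counts, reported as fold-change versus DMSO; triplicates.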

[4] = read-out: Neurite Average Length @ 10 μM
[5] = read-out: Neurite Branch Points: @ 10 μM

Compound | 5HT2A Agonist mean @ 100 nM (%) [1] | 5HT2A Agonist mean @ 10 μM (%) [1] | 5HT2A Agonist mean @ 100 μM (%) [1] | 5HT2A Antagonist mean @ 100 nM (%) [2] | 5HT2A Antagonist mean @ 10 μM (%) [2] | 5HT2A Antagonist mean @ 100 μM (%) [2] | fold induction at 10 µM [3, 4] | fold induction at 10 µM [3, 5]
COc1ccc2ccn(CCN(C)C)c2c1 [Example 5, 2-(6-methoxy-1H-indol-1-yl)-N,N-dimethylethan-1-amine] | B (does not activate 5HT2A sensor assay in agonist mode) | B (does not activate 5HT2A sensor assay in agonist mode) | A (activates 5HT2A sensor assay in agonist mode) | B (inhibits 5HT response by 75% to 100%) | B (inhibits 5HT response by 75% to 100%) | B (inhibits 5HT response by 75% to 100%) | 1.5 to 3 | 1.5 to 3
COc1cccc2ccn(CCN(C)C)c12.O=C(O)/C=C/C(=O)O [Example 6, 2-(7-methoxy-1H-indol-1-yl)-N,N-dimethylethan-1-amine] | B (does not activate 5HT2A sensor assay in agonist mode) | B (does not activate 5HT2A sensor assay in agonist mode) | B (does not activate 5HT2A sensor assay in agonist mode) | A (inhibits 5HT response by >100%) | A (inhibits 5HT response by >100%) | A (inhibits 5HT response by >100%) | 1.5 to 3 | 1.5 to 3
COc1ccc2c(ccn2CCN(C)C)c1.O=C(O)/C=C/C(=O)O [Example 4, 2-(5-methoxy-1H-indol-1-yl)-N,N-dimethylethan-1-amine] | B (does not activate 5HT2A sensor assay in agonist mode) | B (does not activate 5HT2A sensor assay in agonist mode) | A (activates 5HT2A sensor assay in agonist mode) | C (inhibits 5HT response by <75%) | B (inhibits 5HT response by 75% to 100%) | B (inhibits 5HT response by 75% to 100%) | 1.5 to 3 | 1.5 to 3
C[C@H](Cn1ccc2cc(F)ccc21)N(C)C [Example 60, (R)-1-(5-fluoro-1H-indol-1-yl)-N,N-dimethylpropan-2-amine] | B (does not activate 5HT2A sensor assay in agonist mode) | B (does not activate 5HT2A sensor assay in agonist mode) | A (activates 5HT2A sensor assay in agonist mode) | C (inhibits 5HT response by <75%) | B (inhibits 5HT response by 75% to 100%) | B (inhibits 5HT response by 75% to 100%) | 1.5 to 3 | 1.5 to 3
COc1ccc2c(ccn2C[C@@H](C)N(C)C)c1 [Example 59, (R)-1-(5-methoxy-1H-indol-1-yl)-N,N-dimethylpropan-2-amine] | B (does not activate 5HT2A sensor assay in agonist mode) | B (does not activate 5HT2A sensor assay in agonist mode) | B (does not activate 5HT2A sensor assay in agonist mode) | B (inhibits 5HT response by 75% to 100%) | A (inhibits 5HT response by >100%) | A (inhibits 5HT response by >100%) | 1.5 to 3 | > 3
COc1cccc2c1ccn2CCN(C)C.O=C(O)/C=C/C(=O)O [Example 3, 2-(4-methoxy-1H-indol-1-yl)-N,N-dimethylethan-1-amine] | B (does not activate 5HT2A sensor assay in agonist mode) | B (does not activate 5HT2A sensor assay in agonist mode) | B (does not activate 5HT2A sensor assay in agonist mode) | A (inhibits 5HT response by >100%) | A (inhibits 5HT response by >100%) | A (inhibits 5HT response by >100%) | < 1.5 | 1.5 to 3
